# Reference: patent US11235020B2, “Methods and compositions for inhibiting glyoxalase 1 (GLO1)” (priority 2013, dated 2022)
# Several values for one entry are separate records, joined by “and”; a condition that tells them apart may be missing. Equal values may be shown once.
# Legend:
# [1] = test system: GABAA receptors in hippocampal neurons; assay: Whole-cell patch clamp in hippocampal neurons (HN); assay type: cell-based, rat
# Procedure: Reagents: All reagents were obtained from Sigma-Aldrich.
# Neurons were maintained in neurobasal medium with B27 supplement and glutamax in a humidified atmosphere with 5% CO2 at 37° C.
# Filter and sampling frequencies were 5 and 25 kHz, respectively, for voltage-clamp experiments and 1 and 10 kHz, respectively, for current-clamp recording. Experiments were performed at 32° C. using a feedback-controlled heated perfusion system (Warner Instruments). Vm, ligand-gated currents, and potassium channel currents were studied in a bath solution containing 1 mM CaCl2, 1 mM MgCl2, 4 mM KCl, 140 mM NaCl, 5 mM glucose, and 10 mM HEPES (pH 7.4). […] Electrodes were coated with Sigmacote (Sigma) prior to use.
# Ligand-gated currents: Ligand-gated currents were studied in voltage-clamp mode by application of reagents to cells held at −50 mV.
# sodium currents = assay: Voltage-gated sodium currents in CGN; assay type: cell-based, rat; conditions: 10 μM MG
# Procedure: Sodium currents: Sodium currents were studied as previously described (Plant 2006) using a bath solution containing 130 mM NaCl, 5 mM CsCl, 2 mM CaCl2, 1.2 mM MgCl2, 5 mM glucose, and 10 mM HEPES adjusted to pH 7.4 with NaOH. 500 nM tetrodotoxin (Sigma) was included in the bath […]. The electrode solution contained 60 mM CsCl, 80 mM CsF, 10 mM EGTA, 1 mM CaCl2, 1 mM MgCl2, 5 mM Na2ATP, and 10 mM HEPES adjusted to pH 7.4 with CsOH. All voltage-gated currents were studied following a P/5 leak subtraction protocol, and voltage-clamp errors were minimized with 80% series resistance compensation.
# [2] = test system: motor coordination in mice; assay: Balance beam test; assay type: in vivo, mouse; conditions: 300 mg/kg i.p., B6 mice
# Procedure: The balance beam was 97 cm×9.5 mm and elevated to 46 cm. Mice were tested on the balance beam, and missteps were counted.
# Balance beam: The balance beam test was performed as described above. Ten minutes post-injection, mice were tested on the balance beam, and missteps were recorded.
# neuronal cell death = conditions: literature (Di Loreto 2008; Di Loreto 2004; Li 2010); cited from earlier work
# [3] = test system: picrotoxin-induced seizures; assay: Picrotoxin-induced seizures, behavioral scoring; assay type: in vivo, mouse; conditions: MG 50 and 200 mg/kg pre-treatment, picrotoxin 5 mg/kg
# Procedure: Drug administration: All experiments with MG utilized crude MG obtained from Sigma-Aldrich. For pre-treatment, MG (50 or 200 mg/kg) or vehicle (0.9% saline) was administered by i.p. injection 10 minutes before the seizure-inducing agent. For treatment after seizure onset, MG (200 mg/kg) or vehicle (0.9% saline) was administered by i.p. injection ten minutes after seizure onset. For GLO1 inhibition, BrBzGCp2 (50 mg/kg) or vehicle (8% DMSO and 18% Tween-80) was administered by i.p. injection two hours before seizure induction.
# Seizure induction: For picrotoxin-induced seizures, 5 mg/kg of picrotoxin in 0.9% saline was administered by i.p. injection. Seizures were scored for one hour after picrotoxin administration. For pilocarpine-induced seizures, mice were pre-treated with atropine (5 mg/kg in 0.9% saline) by i.p. injection in order to reduce the peripheral effects of pilocarpine. Thirty minutes after atropine administration, pilocarpine was administered by i.p. injection. B6 mice were treated with 250 mg/kg pilocarpine in 0.9% saline, and FVB mice (WT and Tg) were treated with 300 mg/kg pilocarpine in 0.9% saline. Seizures were scored for 90 minutes after pilocarpine administration.
# Seizure scoring: Picrotoxin-induced seizures were scored as the presence of generalized convulsions as well as the latency to and duration of generalized convulsions.
# glutamate receptors = assay: Glutamatergic currents in CGN; assay type: cell-based, rat; conditions: 10 μM MG
# Source text: Ligand-gated currents: Ligand-gated currents were studied in voltage-clamp mode by application of reagents to cells held at −50 mV. GABAergic and glycinergic currents were activated by application of GABA and glycine and antagonized by application of SR and strychnine, respectively (Kaneda 1995). Glutamatergic currents were activated by 1-glutamate and antagonized by CNQX and AP-5 (Wyllie 1994).
# [4] = test system: anxiety-like behavior and locomotion in mice; assay: Open field (OF) test; assay type: in vivo, mouse
# Procedure: OF test: Mice were placed into the center of the OF, and activity was monitored for five to ten minutes. The apparatus was illuminated to approximately 40 lux. Data were collected and processed using the manufacturer's software (AccuScan Instruments).
# OF test: Ten minutes post-injection, mice were placed into the center of the OF. The apparatus was illuminated to approximately 40 lux. Behavior was measured as described above.
# OF test replication studies: Ten to twenty minutes post-injection, mice were tested in the OF for five to ten minutes. In some experiments, behavior was scored as described above. In other experiments, mice were tested in the OF, and behavior was automatically scored by the Noldus Ethovision System. For mice tested in the Noldus system, the apparatus was illuminated to approximately 1,000 lux.
# Chronic MG administration: For five days, mice were injected twice daily with vehicle or MG (4 mg/kg). Twelve hours after the final injection, mice were tested in the OF as described above.
# Pure MG: Pure MG was obtained from Dr. John Termini at the City of Hope, Duarte, Calif. It was administered at the indicated doses by i.p. injection. Mice were tested as described above.
# OF test: Two hours post-injection, mice were tested in the OF test as described above. The center size was 10×10 cm. The apparatus was illuminated to approximately 40 lux.
# anxiety-like behavior = conditions: intracerebroventricular MG for six days (Hambsch 2010); cited from earlier work
# [5] = test system: depression-like behavior in mice; conditions: intracerebroventricular MG for six days (Hambsch 2010); cited from earlier work
# [6] = test system: anxiety-like behavior in C57BL6/J mice; assay: OFT after bilateral microinjection into the basolateral amygdala (BLA); conditions: MG 12 uM or 24 uM, 0.5 ul bilateral into BLA, over 30 m
# mice = assay: Observation of sedation or gross deficits in treated mice; conditions: MG 300 mg/kg, WT B6 mice, data not shown
# [7] = MG 50 mg/kg i.p., male WT B6 mice, 10 min post-injection
smiles,measurement,setting,value
"CC(=O)C=O [MG, methylglyoxal]",peak response versus GABA in hippocampal neurons,[1],approximately one-third of those evoked by GABA
same,effect on major sodium currents,sodium currents,did not affect the major sodium currents
same,footslips on the balance beam (ataxia),[2],made more footslips than vehicle-treated mice
same,MG concentrations that induce neuronal cell death in vitro,neuronal cell death,"100-1,000 μM"
same,duration of generalized convulsions,[3],reduced seizure duration
same,percentage of mice undergoing generalized convulsions,[3],reduced the percentage of mice undergoing generalized convulsions
same,latency to first generalized convulsion (seizure onset),[3]; dose-dependent,delayed seizure onset
same,activation of glutamate receptors,glutamate receptors,did not activate
same,anxiety-like behavior in the OF after chronic treatment,"[4]; MG 4 mg/kg i.p. twice daily for five days, tested on the sixth day",significant reduction in anxiety-like behavior
same,center time in the OF,"[4]; MG 50 mg/kg i.p., CD-1 mice",increased center time in the OF
same,distance traveled in the OF,"[4]; MG 50 mg/kg i.p., CD-1 mice",without affecting distance traveled
same,anxiety-like behavior in the OF in mice with the Glo1 duplication,"[4]; MG 50 mg/kg i.p., CD-1 mice with Glo1 duplication",reduced anxiety-like behavior in mice with the Glo1 duplication
same,distance traveled in the OF,[4]; [7],without affecting distance traveled
same,increase in center time in the OF,[4]; [7],approximately 30%
same,persistence of anxiolytic effect after injection,"[4]; MG 50 mg/kg i.p., separate cohorts tested at different intervals",≤ 20 min
same,"Cohen's d, meta-analysis of anxiolytic effect in the OF test","[4]; MG 50 mg/kg i.p., seven experiments, total n = 181, fixed-effect model",0.78 and 0.7798
same,locomotion in the OF,"[4]; MG 100 mg/kg, WT B6 mice",decreased locomotion in the OF
same,anxiety-like behavior in the EPM,anxiety-like behavior,reduced anxiety-like behavior in the EPM
same,immobility in the TST,[5],reduced immobility in the TST
same,center duration in the OFT,[6],increased center duration in the OFT
same,sedation,mice,caused sedation
